Measured values reported in patent US10578608B1, “Tools to detect, track and target cancer cells in vivo” (The Regents of the University of California, priority 2015, dated 2020).
k = constrained ethyl (cEt); d = 2'-deoxy (DNA)

Columns and labels:
[1] = system: MSI1 RNA; experiment: MSI1 expression after ASO free uptake (q-RT-PCR); format: cell-based, human; details: 24 hours, MIA PaCa-2 cells
Procedure: (FIG. 8 F to FIG. 8H) Real time PCR analysis of Msi expression following ASO free uptake in MIA PaCa-2 cells. MIA PaCa-2 cells were treated with 2 Gen 2.5 cEt ASOx target MSI1 or Control Gen 2.5 ASO for 24 hours, RNA was isolated and target knockdown (MSI1 RNA level) was determined by q-RT-PCR. IC50 values for each ASO were calculated using GraphPad Prism software; each treatment condition was performed in triplicate. (FIG. 8I) Colony formation assay in MSI1 ASO-treated MIA PaCa-2 cells after weekly delivery of control or MSI1 ASOs; colonies were counted after 4 weeks; n=3 for each ASO tested. (FIG. 8J) In vivo tracking of tumor volume in MSI1 ASO treated MIA PaCa-2 tumors with intratumoral delivery of control or MSI1 ASOs every day for 5 days followed by 2 days off; n=5 for each ASO tested. Nonlinear regression was used to determine the difference in slope between Control ASO and MSI1-ASO-1 (p<0.001). (FIG. 8K) In vivo tracking of tumor volume of primary KP^f/fC tumors with intratumoral delivery of control ASO or MSI1 ASOs following tumor establishment (n=4). […]
To identify human Msi ASO inhibitors, rapid throughput screens were performed to identify effective ASOs as previously described (Wang, J. C. Y. & Dick, J. E. Cancer stem cells: lessons from leukemia. Trends in Cell Biology 15, 494-501 (2005); Reya, T., Morrison, S. J., Clarke, M. F. & Weissman, I. L. Stem cells, cancer, and cancer stem cells. Nature 414(6859):105-11 (2001); Carroll, J. B. et al. Potent and Selective Antisense Oligonucleotides Targeting Single-Nucleotide Polymorphisms in the Huntington Disease Gene/Allele-Specific Silencing of Mutant Huntingtin. Molecular Therapy 19, 2178-2185 (2009); Samuel, V. T. et al. Targeting foxo1 in mice using antisense oligonucleotide improves hepatic and peripheral insulin action. […] Gene expression was assessed with taqman probes for MSI1 and MSI2. […] Colonies were counted 21 days after the first ASO treatment. […] Tumor measurements were recorded every 3 days. […]

[2] = system: MIA PaCa-2 tumors; experiment: In vivo growth of MIA PaCa-2 flank tumors with intratumoral ASO; design: species or system mouse; details: intratumoral delivery, four weeks (5 days on and 2 days off), NSG mice
Description: Although ASOs have been used to inhibit gene expression in a variety of tissues (Carroll, J. B. et al. Potent and Selective Antisense Oligonucleotides Targeting Single-Nucleotide Polymorphisms in the Huntington Disease Gene/Allele-Specific Silencing of Mutant Huntingtin. Molecular Therapy 19, 2178-2185 (2009); Hung, G. et al. Characterization of Target mRNA Reduction Through In SituRNA Hybridization in Multiple Organ Systems Following Systemic Antisense Treatment in Animals. Nucleic Acid Therapeutics 23, 369-378 (2013); Rigo, F. et al. Pharmacology of a central nervous system delivered 2′-O-methoxyethyl-modified survival of motor neuron splicing oligonucleotide in mice and nonhuman primates. Journal of Pharmacology and Experimental Therapeutics 350, 46-55 (2014)), whether pancreatic cancer cells can take up ASOs was not known. […] Functionally MSI1 ASOs led to a marked reduction in colony numbers as well as in colony size, with a cumulative reduction of ˜2.5 fold in total growth (FIG. 4I). To test the impact of ASO mediated MSI1 inhibition in vivo, human pancreatic cancer cells were transplanted until growth was measurable. Subsequently, MSI1 inhibitors were delivered intratumorally for a period of four weeks (5 days on and 2 days off) and tumor growth monitored. […] KP^f/fC pancreatic tumor cells were isolated, transplanted and monitored until measurable growth (30 mm^3). […]

5′-ATATGATACAGGACGG-3′ (sugars from the 5' end k3 d10 k3, backbone and methylation of C not given here) [ASO-1]
MSI1 expression in cell lines after ASO treatment [1]: inhibited MSI1 expression
Tumor growth of human pancreatic cancer cell line derived tumors [2]: significant reduction in the rate of tumor growth
